These molecules were tested against Recombinant human HSD17B13 enzyme (Homo sapiens (Human), UniProt Q7Z5P4) (assay: HSD17b13 NAD(P)H-Glo Biochemical Assay). Settings: 50 uM estradiol, 1 mM NAD+; read-out: HSD17β13 IC50.
How it was run: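 Recombinant human HSD17B13 was pre-incubated with inhibitor for 20 min at RT in 20 mM Tris pH 7.4 with 0.002% Tween-20 and 0.02% BSA. Reaction then ran with 50 uM estradiol and 1 mM NAD+ (final) for 3 h at 37° C. NADH formed was detected by NAD(P)H-Glo luminescence after 1 h at RT.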

Recombinant human HSD17B13 enzyme, sequence (Q7Z5P4 20-300): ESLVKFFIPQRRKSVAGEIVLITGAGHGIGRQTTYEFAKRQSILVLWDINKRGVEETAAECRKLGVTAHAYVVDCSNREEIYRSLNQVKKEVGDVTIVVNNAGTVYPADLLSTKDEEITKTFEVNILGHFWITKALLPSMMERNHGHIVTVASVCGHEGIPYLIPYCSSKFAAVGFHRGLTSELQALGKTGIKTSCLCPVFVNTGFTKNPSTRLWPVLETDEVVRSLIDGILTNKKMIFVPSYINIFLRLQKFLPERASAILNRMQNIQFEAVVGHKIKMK

Q: For O=S(=O)(c1ccc2c(cnn2-c2cc(O)c(F)c(F)c2)c1)N1CCCCC1 [Compound 30, 2,3-Difluoro-5-(5-(piperidin-1-ylsulfonyl)-1H-indazol-1-yl)phenol], which IC50 is on record?
A: Its IC50 is 1000 to 30000 nM.

Q: How did the IC50 turn out when CS(=O)(=O)N1CCN(c2cc3cnn(-c4cc(O)c(F)c(Cl)c4)c3cn2)CC1 [Compound 19.21, 3-Chloro-2-fluoro-5-(5-(4-(methylsulfonyl)piperazin-1-yl)-1H-pyrazolo[3,4-c]pyridine-1-yl)phenol] was run?
A: Its IC50 is 100 to 1000 nM.

Q: Which IC50 does the source give for CS(=O)(=O)N1CCN(c2ccc3nn(-c4cc(O)cc(C(F)(F)F)n4)cc3c2)CC1 [Compound 31.03, 2-(5-(4-(Methylsulfonyl)-piperazin-1-yl)-2H-indazol-2-yl)-6-(trifluoromethyl)-pyridin-4-ol] here?
A: The IC50 was 1000 to 30000 nM.

Q: O=S(=O)(c1ccccc1)N1CCN(c2cc3cnn(-c4cc(O)c(F)c(F)c4)c3cc2Cl)CC1 [Compound 21.39, 5-(6-Chloro-5-(4-(phenyl-sulfonyl)piperazin-1-yl)-1H-indazol-1-yl)-2,3-difluoro-phenol] was tested. Which IC50 did it give?
A: Its IC50 is 100 to 1000 nM.

Q: CNC(=O)c1nn(-c2cc(C(F)(F)F)c(F)c(O)c2F)c2ccc(N(C)C3CCOCC3)cc12 [Compound 19.112, 1-(2,4-Difluoro-3-hydroxy-5-(trifluoromethyl)phenyl)-N-methyl-5-(methyl(tetrahydro-2H-pyran-4-yl)amino)-1H-indazole-3-carboxamide] was tested. Which IC50 did it give?
A: The IC50 was 1000 to 30000 nM.

Q: With CC1(c2ccc3c(cnn3-c3cc(O)c(F)c(F)c3)c2)CCN(S(C)(=O)=O)CC1 [Compound 28.03, 2,3-Difluoro-5-(5-(4-methyl-1-(methylsulfonyl)piperidin-4-yl)-1H-indazol-1-yl)phenol] as the molecule, how does the IC50 read?
A: The IC50 was 1000 to 30000 nM.

Q: Cc1c(N2CCN(S(C)(=O)=O)CC2)ccc2c1cnn2-c1cc(O)c(F)c(F)c1 [Compound 21.14, 2,3-Difluoro-5-(4-methyl-5-(4-(methylsulfonyl)piperazin-1-yl)-1H-indazol-1-yl)phenol] was tested. Which IC50 did it give?
A: The IC50 was 1000 to 30000 nM.

Q: How did the IC50 turn out when CNC(=O)N1CCC(c2ccc3c(cnn3-c3ccc(F)c(O)c3)c2)CC1 [Compound 26.02, 4-(1-(4-Fluoro-3-hydroxy-phenyl)-1H-indazol-5-yl)-N-methylpiperidine-1-carboxamide] was run?
A: The IC50 was 100 to 1000 nM.

Q: How did the IC50 turn out when CN(c1ccc2c(c1)c(C1CC1)nn2-c1cc(C(F)(F)F)c(F)c(O)c1F)C1CCOCC1 [Compound 19.75, 3-(3-Cyclopropyl-5-(methyl(tetrahydro-2H-pyran-4-yl)amino)-1H-indazol-1-yl)-2,6-difluoro-5-(trifluoromethyl)phenol] was run?
A: The IC50 was 100 to 1000 nM.

Q: Which IC50 does the source give for Oc1ccc(-c2ccc3c(cnn3-c3cccc(O)c3F)c2)cc1Cl [Compound 3.01, 3-(5-(3-Chloro-4-hydroxyphenyl)-1H-indazol-1-yl)-2-fluorophenol] here?
A: Its IC50 is 100 to 1000 nM.

Q: How did the IC50 turn out when CS(=O)(=O)N1CCN(c2cc3cnn(-c4cc(O)c(F)c(C(F)(F)F)c4)c3cc2F)CC1 [Compound 19.01, 2-Fluoro-5-(6-fluoro-5-(4-(methylsulfonyl)piperazin-1-yl)-1H-indazol-1-yl)-3-(trifluoromethyl)phenol] was run?
A: Its IC50 is 100 to 1000 nM.

Q: Which IC50 does the source give for Oc1ccc(-c2ccc3c(cnn3-c3cc(O)c(F)c(F)c3)c2)cn1 [Compound 16.03, 5-(1-(3,4-Difluoro-5-hydroxyphenyl)-1H-indazol-5-yl)pyridine-2-ol] here?
A: The IC50 was 100 to 1000 nM.

Q: CN(c1ccc2c(cnn2-c2cc(C(F)(F)F)c(F)c(O)c2F)c1)C1CCOCC1 [Compound 19.70, 2,6-Difluoro-3-(5-(methyl(tetrahydro-2H-pyran-4-yl)amino)-1H-indazol-1-yl)-5-(trifluoromethyl)phenol] was tested. Which IC50 did it give?
A: The IC50 was less than 100 nM.

Q: For Cc1nn(-c2cc(C(F)(F)F)c(F)c(O)c2F)c2cnc(N3CCN(c4cnn(C)c4)CC3)cc12 [Compound 19.64, 2,6-Difluoro-3-(3-methyl-5-(4-(1-methyl-1H-pyrazol-4-yl)piperazin-1-yl)-1H-pyrazolo[3,4-c]pyridin-1-yl)-5-(trifluoromethyl)phenol], which IC50 is on record?
A: The IC50 was 100 to 1000 nM.

Q: With Cc1ccc(-n2ncc3cc(N4CCN(S(C)(=O)=O)CC4)ncc32)c(F)c1O [Compound 19.42, 2-Fluoro-6-methyl-3-(5-(4-(methylsulfonyl)piperazin-1-yl)-1H-pyrazolo[3,4-c]pyridine-1-yl)phenol] as the molecule, how does the IC50 read?
A: The IC50 was 1000 to 30000 nM.

Q: For Oc1cccc(-c2ccc3c(cnn3-c3ccc(F)c(O)c3)c2)c1 [Compound 4.03, 2-Fluoro-5-(5-(3-hydroxyphenyl)-1H-indazol-1-yl)phenol], which IC50 is on record?
A: Its IC50 is 100 to 1000 nM.

Q: CS(=O)(=O)N1CCN(c2cc3cnn(-c4cccc(O)c4C#N)c3cn2)CC1 [Compound 19.39, 2-Hydroxy-6-(5-(4-(methylsulfonyl)piperazin-1-yl)-1H-pyrazolo[3,4-c]pyridine-1-yl)benzonitrile] was tested. Which IC50 did it give?
A: The IC50 was 1000 to 30000 nM.

Q: With Oc1cnc(-c2ccc3c(cnn3-c3cc(O)c(F)c(F)c3)c2)c(Cl)c1 [Compound 16.01, 5-Chloro-6-(1-(3,4-difluoro-5-hydroxyphenyl)-1H-indazol-5-yl)pyridine-3-ol] as the molecule, how does the IC50 read?
A: Its IC50 is 100 to 1000 nM.

Q: With Cc1nn(-c2cc(C(F)(F)F)c(F)c(O)c2F)c2cc(Cl)c(N3CCOCC34CC4)nc12 [Compound 19.114, 3-(6-Chloro-3-methyl-5-(7-oxa-4-azaspiro[2.5]octan-4-yl)-1H-pyrazolo[4,3-b]pyridin-1-yl)-2,6-difluoro-5-(trifluoromethyl)phenol] as the molecule, how does the IC50 read?
A: Its IC50 is less than 100 nM.

Q: COC1CCN(c2ccc3c(cnn3-c3cc(O)c(F)c(F)c3)c2)C1 (stereo not drawn) [Compound 21.22, 2,3-Difluoro-5-(5-(3-methoxy-pyrrolidin-1-yl)-1H-indazol-1-yl)phenol] was tested. Which IC50 did it give?
A: Its IC50 is 1000 to 30000 nM.

Q: Which IC50 does the source give for CS(=O)(=O)N1CCN(c2cc3cnn(-c4ccc(F)c(O)c4F)c3cn2)CC1 [Compound 19.07, 2,6-Difluoro-3-(5-(4-(methylsulfonyl)piperazin-1-yl)-1H-pyrazolo[3,4-c]pyridine-1-yl)phenol] here?
A: Its IC50 is 100 to 1000 nM.

Q: Which IC50 does the source give for O=C(O)CCOc1ccc(-c2ccc3c(cnn3-c3ccc(F)c(O)c3)c2)cc1 [Compound 15, 3-(4-(1-(4-Fluoro-3-hydroxyphenyl)-1H-indazol-5-yl)phenoxy)propanoic acid] here?
A: The IC50 was 1000 to 30000 nM.

Q: For COC1CCN(c2ccc3c(cnn3-c3ccc(F)c(O)c3)c2)CC1 [Compound 21.02, 2-Fluoro-5-(5-(4-methoxy-piperidin-1-yl)-1H-indazol-1-yl)phenol], which IC50 is on record?
A: Its IC50 is 1000 to 30000 nM.

Q: For CS(=O)(=O)Nc1ccc(-c2ccc3c(cnn3-c3ccc(F)c(O)c3)c2)c(Cl)c1 [Compound 10, N-(3-Chloro-4-(1-(4-fluoro-3-hydroxyphenyl)-1H-indazol-5-yl)phenyl)methanesulfonamide], which IC50 is on record?
A: Its IC50 is 100 to 1000 nM.

Q: Which IC50 does the source give for Cc1nn(-c2cc(C(F)(F)F)c(F)c(O)c2F)c2cnc(N3CCC(OCC4CC4)CC3)cc12 [Compound 19.59, 3-(5-(4-(Cyclopropylmethoxy)piperidin-1-yl)-3-methyl-1H-pyrazolo[3,4-c]pyridine-1-yl)-2,6-difluoro-5-(trifluoromethyl)phenol] here?
A: The IC50 was 100 to 1000 nM.

Q: For CS(=O)(=O)N1CCN(c2cc3cnn(-c4cc(O)c(F)c(C(F)(F)F)c4)c3cn2)CC1 [Compound 21.41, 2-Fluoro-5-(5-(4-(methyl-sulfonyl)piperazin-1-yl)-1H-pyrazolo[3,4-c]pyridine-1-yl)-3-(trifluoromethyl)phenol], which IC50 is on record?
A: The IC50 was 100 to 1000 nM.

Q: CS(=O)(=O)N1CCN(c2ncc3c(cnn3-c3cc(O)c(F)c(C(F)(F)F)c3)n2)CC1 [Compound 21.52, 2-Fluoro-5-(5-(4-(methyl-sulfonyl)piperazin-1-yl)-1H-pyrazolo[4,3-d]pyrimidin-1-yl)-3-(trifluoromethyl)phenol] was tested. Which IC50 did it give?
A: The IC50 was 100 to 1000 nM.

Q: For CS(=O)(=O)N1CCN(c2cc3cn(-c4cc(O)c(F)c(C(F)(F)F)c4)nc3cc2Cl)CC1 [Compound 19.46, 5-(6-Chloro-5-(4-(methylsulfonyl)piperazin-1-yl)-2H-indazol-2-yl)-2-fluoro-3-(trifluoromethyl)phenol], which IC50 is on record?
A: Its IC50 is less than 100 nM.

Q: Which IC50 does the source give for CS(=O)(=O)N1CC(Oc2ccc3c(cnn3-c3cc(O)c(F)c(F)c3)c2)C1 [Compound 25, 2,3-Difluoro-5-(5-((1-(methylsulfonyl)azetidin-3-yl)oxy)-1H-indazol-1-yl)phenol] here?
A: The IC50 was 100 to 1000 nM.

Q: With COC1CCN(c2ccc3c(cnn3-c3cc(O)c(F)c(F)c3)c2)CC1 [Compound 21.20, 2,3-Difluoro-5-(5-(4-methoxy-piperidin-1-yl)-1H-indazol-1-yl)phenol] as the molecule, how does the IC50 read?
A: Its IC50 is 100 to 1000 nM.

Same assay, conditions: read-out: HSD17β13 inhibition at 10 uM

Q: Which inhibition at 10 µM does the source give for Cc1nc2cc(N3CCOCC34CC4)ncc2n1-c1cc(C(F)(F)F)c(F)c(O)c1F [Compound 21.63, 2,6-Difluoro-3-(2-methyl-6-(7-oxa-4-azaspiro[2.5]octan-4-yl)-3H-imidazo[4,5-c]pyridin-3-yl)-5-(trifluoromethyl)phenol] here?
A: The inhibition at 10 µM was less than 20%.

Same assay, conditions: read-out: HSD17β13 inhibition at 30 uM

Q: How did the inhibition at 30 µM turn out when COC(=O)c1cc2cc(N3CCN(S(C)(=O)=O)CC3)ccc2n1-c1ccc(F)c(O)c1 [Compound 21.62, Methyl 1-(4-fluoro-3-hydroxy-phenyl)-5-(4-(methylsulfonyl)-piperazin-1-yl)-1H-indole-2-carboxylate] was run?
A: Its inhibition at 30 µM is less than 20%.

Q: For Cc1cc(N2CCN(S(C)(=O)=O)CC2)cc2cnn(-c3cc(O)c(F)c(F)c3)c12 [Compound 21.17, 2,3-Difluoro-5-(7-methyl-5-(4-(methylsulfonyl)piperazin-1-yl)-1H-indazol-1-yl)phenol], which inhibition at 30 µM is on record?
A: Its inhibition at 30 µM is 47%.
